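Briefly, cells in 96-well plates were exposed to five compound concentrations for 48 h, and endpoints were estimated by linear interpolation. The concentration for 50% growth inhibition is given as GI50.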 The source made the active and inactive calls. Rule as the data show it: active = GI50 up to about 1.1 µM and inactive = higher.
How the values were obtained:
Assay in all cases: NCI anticancer screen, dose series, 48 h
[1] = tested on: UACC-257
[2] = tested on: NCI-H226
[3] = tested on: NCI-H522
[4] = tested on: COLO 205
[5] = tested on: HL-60
[6] = tested on: SF-539
[7] = tested on: SNB-75
[8] = tested on: LOX IMVI
[9] = tested on: BT-549
[10] = tested on: MDA-MB-231
[11] = tested on: RXF 393
[12] = tested on: DMS-114
[13] = tested on: RPMI-8226
[14] = tested on: M14
[15] = tested on: K562
[16] = tested on: HOP-62
[17] = tested on: CAKI-1
[18] = tested on: OVCAR-8
[19] = tested on: NCI-H23
[20] = tested on: OVCAR-4

Measured: GI50

CNC(=O)OCc1nc(SSC(C)(C)C)n(C)c1COC(=O)NC
inactive: [1] 2.94 µM | [2] 13.3 µM | [3] 1.16 µM | [4] 1.59 µM | [6] 3.94 µM | [7] 8.57 µM | [8] 3.58 µM | [9] 1.47 µM | [10] 2.24 µM | [11] 1.45 µM | [12] 1.72 µM | [13] 2.54 µM | [14] 1.71 µM | [15] 1.94 µM | [16] 12.8 µM | [17] 1.82 µM | [18] 2.07 µM | [19] 2.71 µM | [20] 2.01 µM
active: [5] 0.863 µM

C/C(CC(=O)Nc1cccc(C)c1C)=N\NC(N)=S
inactive: [1] > 100 µM | [2] > 100 µM | [3] > 100 µM | [4] > 100 µM | [5] > 100 µM | [6] > 100 µM | [7] > 100 µM | [8] > 100 µM | [11] > 100 µM | [12] 41.7 µM | [13] 40.8 µM | [14] > 100 µM | [15] > 100 µM | [16] > 100 µM | [17] > 100 µM | [18] > 100 µM | [19] > 100 µM | [20] > 100 µM

O=C(CCC1CCCCN1)Nc1ccc2c(c1)C(=O)c1ccc(NC(=O)CCN3CCCCC3)cc1C2=O (configuration not stated)
inactive: [1] 1.44 µM | [2] 4.66 µM | [3] 1.38 µM | [4] 1.35 µM | [5] 5.77 µM | [6] 2.97 µM | [7] 2.62 µM | [8] 1.21 µM | [10] > 10 µM | [12] 1.59 µM | [13] 7.55 µM | [14] 1.32 µM | [15] 1.83 µM | [16] 9.29 µM | [17] 2.11 µM | [18] 2.37 µM | [19] 2.21 µM | [20] 1.65 µM
active: [11] 0.776 µM

N#C/C(=C/c1ccc([N+](=O)[O-])o1)c1ccccc1
inactive: [1] > 100 µM | [2] > 100 µM | [3] > 100 µM | [4] > 100 µM | [5] > 100 µM | [6] > 100 µM | [7] 97.7 µM | [8] > 100 µM | [11] > 100 µM | [12] > 100 µM | [13] > 100 µM | [14] > 100 µM | [15] > 100 µM | [16] > 100 µM | [17] > 100 µM | [18] > 100 µM | [19] > 100 µM | [20] > 100 µM

COc1nc(=O)cc(N)n1C1OC(CO)C(O)C1O (configuration not stated)
inactive: [1] > 100 µM | [2] > 100 µM | [3] > 100 µM | [4] > 100 µM | [5] > 100 µM | [6] > 100 µM | [7] > 100 µM | [8] > 100 µM | [11] > 100 µM | [12] > 100 µM | [13] > 100 µM | [14] > 100 µM | [15] > 100 µM | [16] > 100 µM | [17] > 100 µM | [18] > 100 µM | [19] > 100 µM

O=C(NC(c1ccccc1)C(O)C(=O)OCc1ccc2c(c1)C(=O)c1ccccc1C2=O)c1ccccc1 (configuration not stated)
inactive: [1] 28.5 µM | [2] 4.61 µM | [3] 14.8 µM | [4] 48.4 µM | [5] > 83.6 µM | [6] 6.31 µM | [7] 4.37 µM | [8] 13.2 µM | [9] 35.3 µM | [10] 15 µM | [11] 3.13 µM | [12] 12.6 µM | [13] 35.8 µM | [14] 36.1 µM | [15] > 90.6 µM | [16] 3.62 µM | [17] 8.65 µM | [18] 4.25 µM | [19] 12 µM | [20] 2.2 µM

COc1cc2c(oc(=O)c3c4occc4cc(OC)c23)c2cccc(O)c12
inactive: [1] > 100 µM | [2] > 100 µM | [3] > 100 µM | [4] > 100 µM | [5] > 100 µM | [6] > 100 µM | [7] 83.6 µM | [8] > 100 µM | [11] > 100 µM | [12] > 100 µM | [13] > 100 µM | [14] > 100 µM | [15] > 100 µM | [16] > 100 µM | [17] > 100 µM | [18] > 100 µM | [19] > 100 µM | [20] > 100 µM

Cc1ccccc1NC(=O)C(=O)C(C#N)c1ccc(Cl)cc1 (configuration not stated)
inactive: [1] > 100 µM | [2] 78.5 µM | [3] 50.7 µM | [4] 31.3 µM | [5] 27.8 µM | [6] 30.4 µM | [7] > 100 µM | [8] 17.3 µM | [11] > 100 µM | [12] 39.8 µM | [13] 22.6 µM | [14] 45.9 µM | [15] 29.1 µM | [16] > 100 µM | [17] > 100 µM | [18] 46.6 µM | [19] 56.5 µM

Cc1cccc(C(C)C)c1NC(=O)C(=O)CC(=O)c1c(C)[n+]([O-])c2ccccc2[n+]1[O-]
inactive: [1] 23.3 µM | [2] > 100 µM | [3] 21.9 µM | [4] 33.1 µM | [5] 41.2 µM | [6] 36.9 µM | [7] 28.5 µM | [8] 23 µM | [11] 44.2 µM | [12] 16.5 µM | [13] 22.2 µM | [14] 27.8 µM | [15] > 100 µM | [16] > 100 µM | [17] 25.6 µM | [18] 31.9 µM | [19] 18.8 µM | [20] 25.4 µM

COC(=O)c1cccc2cccc(C(=O)Nc3ccc(Cl)cc3)c12
inactive: [1] > 100 µM | [2] > 100 µM | [3] 13.7 µM | [6] 21.3 µM | [7] > 100 µM | [11] > 100 µM | [12] 14.8 µM | [13] 2.09 µM | [17] > 100 µM | [18] > 79.8 µM | [19] 12.7 µM | [20] > 100 µM
active: [4] 0.977 µM | [5] 0.706 µM | [8] 0.664 µM | [14] 0.951 µM | [15] 0.142 µM

— ChEMBL document CHEMBL1201862, “PubChem BioAssay data set” (2004)
